Values after ≈ are worked out from the molar mass of the structure shown.
conditions: buffer; pH 7.4; 200.0 µM

Row | solubility kinetic [µg/mL] | Compound
1 | > 44 | CCC(=O)N1C(=O)C2(Nc3ccccc3N2)c2ccccc21
2 | > 78.6 | CCCc1cc(=O)[nH]c(SCC(=O)Nc2cc(S(=O)(=O)N3CCOCC3)ccc2N(CC)CC)n1
3 | > 47.3 | COCCSc1ccccc1C(=O)NCCc1ccccc1
4 | 9.2 (≈ 38.1 µM) | Cc1ccc(-n2sc3ccccc3c2=O)cc1
5 | > 45.1 | O=C(NCCc1ccccc1)C1CC(=O)N(C2CCCC2)C1 (stereo unspecified)
6 | 2.1 (≈ 6.92 µM) | O=[N+]([O-])c1ccc(N2CCN(CC3CCCCC3)CC2)cc1
7 | > 53.2 | COc1ccc(C(C)=O)cc1CSc1nnc(-c2ccncc2)n1C
8 | > 45.8 | CC(C)Oc1ccccc1NC(=O)CSc1nccn1C
9 | 7.5 (≈ 23.5 µM) | CCCNC(=S)N1CCC(NC(=O)c2ccc(C)cc2)CC1
10 | > 24.5 | Cl.O=C(O)C1=CCNCC1
11 | 12.4 (≈ 39.2 µM) | CN(C)c1nc(F)c(F)c(S(=O)(=O)c2ccccc2)c1F
12 | > 50.5 | O=C(COC(=O)Cc1cccc(F)c1)NC(=O)NC1CCCCC1
13 | 43.3 (≈ 125 µM) | CC(=O)c1cccc(NC2c3ccccc3C(=O)N2Cc2ccco2)c1 (stereo unspecified)
14 | 1.5 (≈ 4.66 µM) | COc1ccc(C(=O)NC(=S)Nc2cccnc2)cc1Cl
15 | 26.6 (≈ 77.6 µM) | Cc1[nH]c2ccccc2c1C(=O)C(C)OC(=O)c1ccc(Cl)nc1 (stereo unspecified)
16 | < 0.8 | CCOc1ccc(N2C(=O)S/C(=C\c3ccc(O)c(OCC)c3)C2=O)cc1
17 | > 44.2 | O=C(COC(=O)c1cccnc1Cl)NCc1ccco1
18 | > 38.4 | Cc1c(-c2ccccc2)[n+](=O)c2c(n1[O-])CCCC2
19 | > 41.1 | CC(=O)Nc1c(NC(C)(C)C)c2ccccc2oc1=O
20 | > 50.2 | Cc1ccc(C)c(S(=O)(=O)NCCN2CCOCC2)c1.Cl
21 | 29.9 (≈ 124 µM) | COc1ccccc1OCC(O)COC(N)=O (stereo unspecified)
22 | > 46.1 | O=C(COC(=O)c1ccc(O)cc1O)NC1CCCCCC1
23 | > 41.3 | Nc1[nH]c(=O)[nH]c(=O)c1N=Nc1ccc(C(=O)O)cc1
24 | > 46.4 | CCOC(=O)C[N+]1(C)CCN(C(C)=O)CC1.[Br-]

Row | solubility kinetic [µg/mL] | Compound
25 | > 45.1 | O=C(CN1C(=O)NC2(CCCCCC2)C1=O)c1ccccc1
26 | 35.6 (≈ 113 µM) | COc1ccc(CN2CC(C(N)=O)Oc3ccccc32)cc1F (stereo unspecified)
27 | < 0.7 | O=C(COc1ccccc1Cl)Nc1ccc2oc(=O)ccc2c1
28 | > 39.9 | Cc1cc([N+](=O)[O-])nn1CC(=O)NC1CCCCC1
29 | 2.2 (≈ 5.44 µM) | O=C(Nc1cccc(S(=O)(=O)N2CCOCC2)c1)C12CC3CC(CC(C3)C1)C2
30 | 31.1 (≈ 94.9 µM) | COc1ccc(CNc2ccc(Cl)cc2)cc1Cn1ccnc1
31 | > 49.5 | O=C(O)CN1C(=O)/C(=C/c2ccccc2Cl)Oc2ccccc21
32 | 0.4 (≈ 1.42 µM) | N#C/C(=C\c1ccc[nH]1)C(=O)Nc1ccccc1[N+](=O)[O-]
33 | > 45.3 | Cc1ccc(SCCCCN2CCOCC2)cc1.Cl
34 | > 48.2 | COc1cc(C(=O)OCC(=O)N2CCCC2=O)cc(OC)c1C
35 | > 51.5 | CC(Oc1ccccc1)C(=O)OCC(=O)Nc1ccc2c(c1)OCO2 (stereo unspecified)
36 | 2 (≈ 7.4 µM) | COc1ccc2sc(NCc3ccccc3)nc2c1
37 | 36.6 (≈ 108 µM) | CCOC(=O)Nc1ccc2c(c1)N(C(=O)CN)c1ccccc1CC2
38 | 0.8 (≈ 2.54 µM) | CC(Sc1ncnc2sc(-c3ccccc3)cc12)C(N)=O (stereo unspecified)
39 | 41 (≈ 133 µM) | O=C(O)CN1C(=O)S/C(=C\c2ccc3c(c2)OCO3)C1=O
40 | 11.2 (≈ 39.8 µM) | COc1ccc(N2C(=O)CC(c3ccccc3)C2=O)cc1 (stereo unspecified)
41 | 35.7 (≈ 146 µM) | Cc1nc(C(N)=O)c(N)n1CCc1ccccc1
42 | 10.8 (≈ 26.4 µM) | O=C(Nc1ccc(Cl)cc1F)c1ccc2c(c1)C(=O)N(Cc1ccncc1)C2=O
43 | > 39.8 | O=C(NCCN1CCCCC1)Nc1cccc(F)c1
44 | 3.8 (≈ 11.7 µM) | CC(C)(C)c1ccc(-c2noc(CNC(=O)c3ccco3)n2)cc1
45 | 2.6 (≈ 8.83 µM) | Cc1ccc(NC(=O)N2CCC(c3ccccc3)C2)cc1C (stereo unspecified)
46 | > 50.9 | O=C(NCCNC(=O)c1cc(Cl)ccc1Cl)c1cnccn1
47 | > 53.6 | CCCCN(C)C(=O)c1ccc2c(c1)S(=O)(=O)c1ccccc1C2=O
48 | > 58.1 | CC1(CCc2ccccc2)NC(=O)N(CC(=O)Nc2c(F)cccc2F)C1=O (stereo unspecified)

Row | solubility kinetic [µg/mL] | Compound
49 | 49 (≈ 147 µM) | COc1ccc(NC(=O)CN(C)CC(=O)N2CCCCCC2)cc1
50 | < 0.4 | O=C(Nc1ccc(Cl)c([N+](=O)[O-])c1)c1ccc2c(c1)OCCO2
51 | > 42.9 | CCC(C(=O)OC)n1cnc2c(oc3ccccc32)c1=O (stereo unspecified)
52 | > 42.2 | CCOc1ccccc1NC(=O)c1ccc2nc[nH]c2c1
53 | > 42.8 | NS(=O)(=O)c1ccc(NC(=S)N2CCCC2)cc1
54 | 8.4 (≈ 27.2 µM) | CC(NC(=O)CN1C(=O)c2ccccc2C1=O)c1ccccc1 (stereo unspecified)
55 | 3.6 (≈ 14.9 µM) | CCCc1c(C)[nH]c2nc3ccccc3n2c1=O
56 | 9.8 (≈ 28 µM) | COc1ccnc2c1c(=O)n(Cc1c(F)cccc1Cl)c(=O)n2C
57 | 22.2 (≈ 76.2 µM) | Cc1noc(C)c1C(=O)Nc1nc2ccc(F)cc2s1
58 | > 37.7 | COC(=O)N1c2ccccc2C=Cc2ccccc21
59 | > 35 | CC(C)(C)CC(C)(C)NC(=O)c1ccccc1
60 | 8.5 (≈ 24.2 µM) | COc1ccc(C2CC(=O)C=C(NCc3ccc4c(c3)OCO4)C2)cc1 (stereo unspecified)
61 | 7.2 (≈ 21.2 µM) | CC(C)[C@H](NS(=O)(=O)c1ccccc1)C(=O)Nc1nccs1
62 | 24.4 (≈ 92.3 µM) | C=C1c2cc(C)c(C)cc2NC(=O)N1c1ccccc1
63 | 6.5 (≈ 25.3 µM) | Cc1ccc(Cl)cc1NC(C#N)c1ccccc1 (stereo unspecified)
64 | > 32.3 | O=C(Nc1ccccc1)c1cccc(=O)o1
65 | 6.2 (≈ 27.3 µM) | CC(C)CC(=O)Nc1ccc2ccccc2c1
66 | 42.1 (≈ 147 µM) | CCN(CCO)Cc1cc(=O)oc2cc3c(cc12)CCC3
67 | < 0.4 | COc1c(C(=O)Nc2ccc(Br)cn2)ccc2ccccc12
68 | > 31.8 | O=C(NC1=NCCS1)C1CCCCC1
69 | 47.8 (≈ 140 µM) | Cc1ccnc(NS(=O)(=O)c2ccc(NS(C)(=O)=O)cc2)n1
70 | > 51.2 | CC(=O)Nc1cccc(NC(=O)CSc2nnc3ccccn23)c1
71 | 0.9 (≈ 2.31 µM) | CC(=O)Nc1ccc(NC(=S)NC(=O)c2ccc(-c3ccccc3)cc2)cc1
72 | > 47.6 | CC(=O)Nc1ccc(OCC(O)Cn2nc(C)c(C)c2C)cc1 (stereo unspecified)

Row | solubility kinetic [µg/mL] | Compound
73 | 39 (≈ 150 µM) | Cc1ccc(C(=O)NCCC(=O)N2CCCC2)cc1
74 | > 49 | O=C(CSc1nc2ccccc2o1)NC1CCS(=O)(=O)C1 (stereo unspecified)
75 | 0.6 (≈ 1.6 µM) | O=C(Nc1ccc(CN2CCOCC2)cc1)c1ccc(Br)cc1
76 | > 42.3 | COn1c(=O)c(-c2ccc(C)cc2)[n+]([O-])c2ccccc21
77 | 39.7 (≈ 146 µM) | COc1ccccc1NC(=O)c1ccc2c(c1)OCO2
78 | > 39.7 | CN(C)C(CNC(=O)c1ccco1)c1cccs1 (stereo unspecified)
79 | 44.8 (≈ 138 µM) | COc1ccc(C2OCC3(CO2)SC(=O)NC3=O)cc1OC (stereo unspecified)
80 | > 51.2 | Cc1ccc(OCC(=O)NCCCNC(=O)c2ccc(C)nc2)cc1
81 | 33.7 (≈ 136 µM) | CC(=O)N1CCN=C1SCc1cccc(C)c1
82 | 0.9 (≈ 2.48 µM) | CCNS(=O)(=O)c1ccc(NC(=O)Nc2cc(C)ccc2OC)cc1
83 | > 52.3 | COc1cccc(NC(=O)COC(=O)CNC(=O)C2CCCCC2)c1
84 | 31.8 (≈ 148 µM) | Cc1cccc(NC(=O)c2ccco2)c1C
85 | 0.3 (≈ 1.07 µM) | Cc1cc2ccccn2c1C(=O)c1cccc([N+](=O)[O-])c1
86 | 2.7 (≈ 10.3 µM) | Clc1ccc(N=c2ssnc2Cl)cc1
87 | 17 (≈ 61 µM) | O=C(NCC1CCCO1)c1cc2cc(Cl)ccc2[nH]1 (stereo unspecified)
88 | > 35 | O=S(=O)(NC1CC1)c1ccc(F)c(F)c1
89 | 3.5 (≈ 10.8 µM) | O=C(Nc1ccc2c(c1)OCCO2)c1ccc(Cl)cc1Cl
90 | 33.2 (≈ 104 µM) | Cc1ccc(C(=O)CN2C(=O)NC3(CCCCC3C)C2=O)s1 (stereo unspecified)
91 | > 47.9 | Cl.O=C(COc1ccc(Cl)cc1)NCCN1CCCC1
92 | 3.3 (≈ 9.21 µM) | O=C(COC(=O)c1ccc([N+](=O)[O-])cc1)NC12CC3CC(CC(C3)C1)C2
93 | 2.5 (≈ 7.41 µM) | COc1ccc2c(c1)c1ncn(Cc3ccc(F)cc3)c(=O)c1n2C
94 | > 47 | CCC(=NCCc1ccc(OC)c(OC)c1)c1ccccc1O
95 | 20.5 (≈ 65.4 µM) | Cc1ccc(NC(=O)CNC(=O)c2ccc3c(c2)OCO3)nc1
96 | 0.8 (≈ 2.68 µM) | CCc1ccccc1NC(=O)c1cc(-c2cccs2)on1

Row | solubility kinetic [µg/mL] | Compound
97 | 24.8 (≈ 86.9 µM) | COc1cccc(C(=O)NC23CC4CC(CC(C4)C2)C3)c1
98 | 11.9 (≈ 32 µM) | CCOc1cc(N2CCOCC2)c(OCC)cc1NC(=O)c1cnccn1
99 | > 41.1 | N#C/C(=C/c1ccncc1)c1nc2ccccc2c(=O)[nH]1
100 | > 47.4 | O=C(COC(=O)c1cccnc1Cl)c1ccc(Cl)s1
101 | > 47.4 | COc1ccccc1C(=O)OCc1cc(=O)n2ccsc2n1
102 | 30.1 (≈ 102 µM) | CC1CCCC(C)N1C(=O)COC(=O)CCC1CCCC1 (stereo unspecified)
103 | > 52.6 | CCN1CCc2c(OCC(=O)N3CCc4ccccc43)cccc2C1=O
104 | 36.8 (≈ 126 µM) | O=C1CSC(c2ccc(F)cc2)N1c1ccccc1F (stereo unspecified)
105 | > 37.1 | CC(=O)Cc1cc2cc([N+](=O)[O-])ccc2oc1=O
106 | 36.6 (≈ 88.1 µM) | O=C(c1ccncc1)N1CCN(S(=O)(=O)c2ccc(OC(F)(F)F)cc2)CC1
107 | 50.1 (≈ 147 µM) | O=C(NCCCNC(=O)c1ccc(Cl)cc1Cl)c1ccco1
108 | 35.1 (≈ 135 µM) | O=C(CCc1ccccc1)Nc1cccnc1Cl
109 | 6.5 (≈ 14.2 µM) | CC(=O)Nc1ccc(S(=O)(=O)N(C)c2ccc(OCCOc3ccccc3F)cc2)cc1
110 | 17.7 (≈ 64.5 µM) | O=C1c2cccc([N+](=O)[O-])c2C(=O)N1C1CCCCC1
111 | 46.8 (≈ 143 µM) | COc1ccc(C2=NOC(C(=O)Nc3cccnc3)C2)cc1OC (stereo unspecified)
112 | 8.7 (≈ 25.4 µM) | Cc1cc(C(=O)OCC(=O)Nc2c(Cl)cccc2Cl)c(C)o1
113 | > 48.1 | Cn1c(SCC2CCCO2)nnc1-c1cccc([N+](=O)[O-])c1 (stereo unspecified)
114 | 5.3 (≈ 16.7 µM) | CC(C)CC(=O)Nc1ccc(C(=O)COC(=O)C2CCC2)cc1
115 | 3.8 (≈ 11.2 µM) | CC(NC(=O)c1cc(Br)ccc1Cl)c1ccccc1 (stereo unspecified)
116 | > 45.8 | Cc1ccc(C(=O)Nc2sc3c(c2C(=O)O)CCCC3)o1
117 | < 0.3 | CCN1C(=O)NC(c2ccccc2)(c2ccccc2)C1=O

Row | Compound | solubility kinetic [µg/mL]
118 | c1ccc(P(c2ccccc2)c2ccccn2)cc1 | 10 (≈ 38 µM)
119 | Cc1c(O)ccc(C(=O)CN2CC(C)OC(C)C2)c1O (stereo unspecified) | > 41.9
120 | O=c1c2ccc(Cl)cc2[nH]c(=S)n1-c1cccnc1 | 10.8 (≈ 37.3 µM)
121 | O=C(Nc1ccc(F)cc1)OC1CN2CCC1CC2 (stereo unspecified) | > 39.6
